These results are taken from patent US8293729B2 (Boehringer Ingelheim International GmbH, priority 2009, dated 2012).

The target of the first test is T1, human GPR119 receptor (Homo sapiens, UniProt Q8TDV5, S329A/T327A).
T1 construct: N-terminal leader […]; expressed in transfected cells
T1 sequence (Q8TDV5 with tags, fused parts or gaps T327A/S329A): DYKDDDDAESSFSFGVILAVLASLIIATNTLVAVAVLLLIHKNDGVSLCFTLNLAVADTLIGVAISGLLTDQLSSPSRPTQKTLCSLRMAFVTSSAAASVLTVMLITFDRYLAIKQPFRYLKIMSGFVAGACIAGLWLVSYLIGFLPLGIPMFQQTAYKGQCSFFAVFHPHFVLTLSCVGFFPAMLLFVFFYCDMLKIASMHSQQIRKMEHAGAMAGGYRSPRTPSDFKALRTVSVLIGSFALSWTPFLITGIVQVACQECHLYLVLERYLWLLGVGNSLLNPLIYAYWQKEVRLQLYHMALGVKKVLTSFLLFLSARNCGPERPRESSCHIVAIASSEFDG
Put plainly: cAMP assay (LANCE cAMP-384) in HEK293 cells stably expressing mutant human GPR119 receptor. It counts as cell-based. Particulars: the 32nd table; read-out: EC50. The essentials:
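HEK293 cells stably expressing human GPR119 (T327A/S329A, modified N-terminus), 1000 cells/well, exposed to compound for 20 min at 37° C. cAMP quantified by LANCE TR-FRET against a standard curve; EC50 from 12 points, 30 μM to 100 pM, or % stimulation at 10 μM.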
(In general: Changes in cAMP serve as a functional read-out for many G protein-coupled receptors.)
What is called EC50 is the concentration at which the effect is half-maximal. Regarding `CS(=O)(=O)c1ccc(N2CCC(=NOC3CCN(c4ncc(Br)cc4F)CC3)CC2)c(F)c1` [Example 63-25], the EC50 is 195 nM.

For the molecule `CCOC(=O)c1ccc(N2CCC(ON=C3CCN(c4ccc(S(C)(=O)=O)cc4F)CC3)CC2)nc1` [Example 63-26], the EC50 was over 10000 nM.

Staying with this test, now noted: the 33rd table; read-out: EC50.
For `CS(=O)(=O)c1ccc(N2CCC(=NOC3CCN(C(=O)OC4CCC4)CC3)CC2)c(F)c1` [Example 64-1, 4-[1-(2-Fluoro-4-methanesulfonyl-phenyl)-piperidin-4-ylideneaminooxy]-piperidine-1-carboxylic acid cyclobutyl ester], the EC50 came out at 81 nM.

For `CS(=O)(=O)c1ccc(N2CCC(=NOC3CCN(C(=O)OCC4CC4)CC3)CC2)c(F)c1` [Example 64-2], the EC50 amounted to 101 nM.

In the case of `C#CCOC(=O)N1CCC(ON=C2CCN(c3ccc(S(C)(=O)=O)cc3F)CC2)CC1` [Example 64-3], the EC50 turned out to be 446 nM.

In the case of `CC#CCOC(=O)N1CCC(ON=C2CCN(c3ccc(S(C)(=O)=O)cc3F)CC2)CC1` [Example 64-4], the EC50 was 152 nM.

Take `CC(OC(=O)N1CCC(ON=C2CCN(c3ccc(S(C)(=O)=O)cc3F)CC2)CC1)C1CC1` (centres unmarked) [Example 64-5]: the EC50 worked out at 90 nM.

As to `CS(=O)(=O)c1ccc(N2CCC(=NOC3CCN(C(=O)OCC4CCC4)CC3)CC2)c(F)c1` [Example 64-6], the EC50 came out at 36 nM.

Turning to `CC1(COC(=O)N2CCC(ON=C3CCN(c4ccc(S(C)(=O)=O)cc4F)CC3)CC2)CC1` [Example 64-7], the EC50 stood at 67 nM.

Consider `CC1CC1COC(=O)N1CCC(ON=C2CCN(c3ccc(S(C)(=O)=O)cc3F)CC2)CC1` (centres unmarked) [Example 64-8], for which the EC50 worked out at 32 nM.

On to `CCOCCOC(=O)N1CCC(ON=C2CCN(c3ccc(S(C)(=O)=O)cc3F)CC2)CC1` [Example 64-10], for which the EC50 worked out at 1280 nM.

Turning to `CS(=O)(=O)c1ccc(N2CCC(=NOC3CCN(C(=O)O[C@H]4CNC(=O)C4)CC3)CC2)c(F)c1` [Example 64-11], the EC50 is over 10000 nM.

On to `CN1CCC(OC(=O)N2CCC(ON=C3CCN(c4ccc(S(C)(=O)=O)cc4F)CC3)CC2)C1` (centres unmarked) [Example 64-13], for which the EC50 was over 10000 nM.

With `CC(CN(C)C)OC(=O)N1CCC(ON=C2CCN(c3ccc(S(C)(=O)=O)cc3F)CC2)CC1` (centres unmarked) [Example 64-14], the 50% effective concentration (EC50) is over 10000 nM.

As for `CN(C)CCCOC(=O)N1CCC(ON=C2CCN(c3ccc(S(C)(=O)=O)cc3F)CC2)CC1` [Example 64-15], the EC50 is over 10000 nM.

As for `CS(=O)(=O)c1ccc(N2CCC(=NOC3CCN(C(=O)OCc4ccccn4)CC3)CC2)c(F)c1` [Example 64-17], the EC50 worked out at 1070 nM.

In the case of `CS(=O)(=O)c1ccc(N2CCC(=NOC3CCN(C(=O)OCCn4cccc4)CC3)CC2)c(F)c1` [Example 64-18], the EC50 was determined as 461 nM.

With `CN1CCCC(OC(=O)N2CCC(ON=C3CCN(c4ccc(S(C)(=O)=O)cc4F)CC3)CC2)C1` (centres unmarked) [Example 64-19], the EC50 was over 10000 nM.

Regarding `CS(=O)(=O)c1ccc(N2CCC(=NOC3CCN(C(=O)OCCN4CCCC4)CC3)CC2)c(F)c1` [Example 64-20], the EC50 is over 10000 nM.

For `CN(C)CCCCOC(=O)N1CCC(ON=C2CCN(c3ccc(S(C)(=O)=O)cc3F)CC2)CC1` [Example 64-21], the EC50 was over 10000 nM.

As to `COC(=O)CC(C)OC(=O)N1CCC(ON=C2CCN(c3ccc(S(C)(=O)=O)cc3F)CC2)CC1` (centres unmarked) [Example 64-22], the EC50 was determined as 193 nM.

On to `COC(=O)[C@@H](C)COC(=O)N1CCC(ON=C2CCN(c3ccc(S(C)(=O)=O)cc3F)CC2)CC1` [Example 64-23], for which the EC50 was 928 nM.

Turning to `COC(=O)[C@@H](C)COC(=O)N1CCC(ON=C2CCN(c3ccc(S(C)(=O)=O)cc3F)CC2)CC1` [Example 64-24], the EC50 came to 708 nM.

With `Cc1ncccc1COC(=O)N1CCC(ON=C2CCN(c3ccc(S(C)(=O)=O)cc3F)CC2)CC1` [Example 64-26], the EC50 was over 10000 nM.

With `CN1CCCC1CCOC(=O)N1CCC(ON=C2CCN(c3ccc(S(C)(=O)=O)cc3F)CC2)CC1` (centres unmarked) [Example 64-27], the EC50 is over 10000 nM.

For `CS(=O)(=O)c1ccc(N2CCC(=NOC3CCN(C(=O)OCCN4CCCCC4)CC3)CC2)c(F)c1` [Example 64-28], the EC50 was over 10000 nM.
